# In US10550105B2 (Ribon Therapeutics Inc., priority 2018, dated 2020):
# Target: PARP7 (Homo sapiens (Human), UniProt Q7Z3E1)
# Assay: Enzymatic assay for inhibition of PARP7: TR-FRET displacement of biotinylated Probe A from the TIPARP active site
# Type: binding
# Details: Table A-1
# Outline: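 Compounds were tested as dose-response series, and reactions were incubated a further 30 min at 25° C. TR-FRET was read at 320 nm excitation with 615 and 665 nm emission after a 90 μs delay. The 665/615 ratio gave the TIPARP–Probe A complex, and % inhibition was fitted against concentration.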
# PARP7, sequence (Q7Z3E1 whole entry): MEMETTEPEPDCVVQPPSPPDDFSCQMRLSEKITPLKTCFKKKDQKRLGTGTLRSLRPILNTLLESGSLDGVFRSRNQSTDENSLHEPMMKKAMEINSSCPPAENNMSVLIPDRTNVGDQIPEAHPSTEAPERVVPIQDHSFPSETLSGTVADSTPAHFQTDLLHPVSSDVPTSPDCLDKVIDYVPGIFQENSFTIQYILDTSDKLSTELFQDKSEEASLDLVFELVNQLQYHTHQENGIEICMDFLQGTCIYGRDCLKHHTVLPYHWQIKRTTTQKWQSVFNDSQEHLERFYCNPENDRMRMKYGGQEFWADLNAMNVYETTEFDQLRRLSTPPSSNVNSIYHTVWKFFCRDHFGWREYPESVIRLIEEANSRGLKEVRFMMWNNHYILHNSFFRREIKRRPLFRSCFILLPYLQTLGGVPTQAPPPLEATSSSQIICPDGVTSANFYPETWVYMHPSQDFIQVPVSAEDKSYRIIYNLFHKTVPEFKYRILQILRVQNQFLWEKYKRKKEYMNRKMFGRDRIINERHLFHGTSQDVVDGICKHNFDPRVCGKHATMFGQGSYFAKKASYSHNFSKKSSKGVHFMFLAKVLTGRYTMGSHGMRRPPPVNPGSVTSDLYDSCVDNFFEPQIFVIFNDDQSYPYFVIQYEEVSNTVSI
row,Molecule,IC50 [µM]
1,"CC(C)(COC[C@@H]1CCCN1c1cn[nH]c(=O)c1C(F)(F)F)CC(=O)N1CCN(c2ccc(C#N)cn2)CC1 [Example 118, 6-[4-(3,3-dimethyl-4-[[(2S)-1-[6-oxo-5-(trifluoromethyl)-1,6-dihydropyridazin-4-yl]pyrrolidin-2-yl]methoxy]butanoyl)piperazin-1-yl]pyridine-3-carbonitrile]",< 0.1
2,"C[C@H](CSCCC(=O)N1CCN(c2ncc(C(F)(F)F)cn2)CC1)Nc1cn[nH]c(=O)c1C(F)(F)F [Example 703, (R)-5-((1-((3-Oxo-3-(4-(5-(trifluoromethyl)pyrimidin-2-yl)piperazin-1-yl)propyl)thio)propan-2-yl)amino)-4-(trifluoromethyl)pyridazin-3(2H)-one]",0.1 to 1
3,"O=c1[nH]ncc(N2Cc3cccc(OCC4CCCCO4)c3C2)c1C(F)(F)F (stereo not drawn) [Example 216, 5-(4-((Tetrahydro-2H-pyran-2-yl)methoxy)isoindolin-2-yl)-4-(trifluoromethyl)pyridazin-3(2H)-one]",< 0.1
4,"O=C(c1cccc(OCC2c3ccccc3CN2c2cn[nH]c(=O)c2C(F)(F)F)c1)N1CCN(c2ccc(C(F)(F)F)cn2)CC1 (stereo not drawn) [Example 368, 4-(Trifluoromethyl)-5-(1-((3-(4-(5-(trifluoromethyl)pyridin-2-yl)piperazine-1-carbonyl)phenoxy)methyl)isoindolin-2-yl)pyridazin-3(2H)-one]",< 0.1
5,"CNCCOc1cccc2c1CN(c1cn[nH]c(=O)c1C(F)(F)F)C2 [Example 217, 5-(4-(2-(Methylamino)ethoxy)isoindolin-2-yl)-4-(trifluoromethyl)pyridazin-3(2H)-one]",0.1 to 1
6,"O=C(C[C@@H]1CC[C@H](CNc2cn[nH]c(=O)c2C(F)(F)F)O1)N1CCN(c2ncc(Cl)cn2)CC1 (single isomer, unassigned) [Example 567 Isomer B]",< 0.1
7,"COC[C@@H](COCCC(=O)N1CCN(c2cnc(Cl)cn2)CC1)Nc1cn[nH]c(=O)c1Br [Example 693, (S)-4-Bromo-5-((1-(3-(4-(5-chloropyrazin-2-yl)piperazin-1-yl)-3-oxopropoxy)-3-methoxypropan-2-yl)amino)pyridazin-3(2H)-one]",< 0.1
8,"N#Cc1ccc(N2CCN(C(=O)CCO[C@@H]3Cc4ccccc4[C@H]3Nc3cn[nH]c(=O)c3C(F)(F)F)CC2)nc1 (single isomer, unassigned) [Example 537 Isomer B]",< 0.1
9,"CN(C)CC(COCCC(=O)N1CCN(c2ccc(C#N)cn2)CC1)Oc1cn[nH]c(=O)c1C(F)(F)F (stereo not drawn) [Example 542, 6-(4-[3-[3-(Dimethylamino)-2-[[6-oxo-5-(trifluoromethyl)-1,6-dihydropyridazin-4-yl]oxy]propoxy]propanoyl]piperazin-1-yl)pyridine-3-carbonitrile]",< 0.1
10,"CC(=O)N1CCCC(COc2cc3c(cc2F)CN(c2cn[nH]c(=O)c2C(F)(F)F)C3)C1 (stereo not drawn) [Example 45, 5-[5-[(1-acetylpiperidin-3-yl)methoxy]-6-fluoro-2,3-dihydro-1H-isoindol-2-yl]-4-(trifluoromethyl)-2,3-dihydropyridazin-3-one]",< 0.1
11,"O=c1[nH]ncc(N2Cc3cccc(NC4CCNCC4)c3C2)c1C(F)(F)F [Example 297, 5-(4-(Piperidin-4-ylamino)isoindolin-2-yl)-4-(trifluoromethyl)pyridazin-3(2H)-one]",0.1 to 1
12,"COc1ccnc2c1CN(c1cn[nH]c(=O)c1C(F)(F)F)C2 [Example 337, 5-(4-Methoxy-5,7-dihydro-6H-pyrrolo[3,4-b]pyridin-6-yl)-4-(trifluoromethyl)pyridazin-3(2H)-one]",< 0.1
13,"CC[C@@H](COCCC(=O)N1CCN(c2ncc(Cl)cn2)CC1)Oc1cn[nH]c(=O)c1C(F)(F)F (single isomer, unassigned) [Example 591 Isomer A]",< 0.1
14,"O=C(C[C@@H]1CC[C@@H](COc2cn[nH]c(=O)c2Cl)O1)N1CCN(c2ncc(C(F)(F)F)cn2)CC1 (single isomer, unassigned) [Example 575 Isomer A]",≥ 1
15,"COC[C@@H](COCCC(=O)N1CCN(c2cnc(C(F)(F)F)cn2)CC1)Nc1cn[nH]c(=O)c1C(F)(F)F [Example 681, (S)-5-((1-Methoxy-3-(3-oxo-3-(4-(5-(trifluoromethyl)pyrazin-2-yl)piperazin-1-yl)propoxy)propan-2-yl)amino)-4-(trifluoromethyl)pyridazin-3(2H)-one]",< 0.1
16,"CC[C@@H](COCCC(=O)N1CCN(c2ncc(Cl)cn2)CC1)Nc1cn[nH]c(=O)c1C(F)(F)F [Example 588, 5-[[(2S)-1-[3-[4-(5-Chloropyrimidin-2-yl)piperazin-1-yl]-3-oxopropoxy]butan-2-yl]amino]-4-(trifluoromethyl)-2,3-dihydropyridazin-3-one]",< 0.1
17,"N#Cc1ccc(N2CCN(C(=O)c3cccc(OCC4CCN(c5cn[nH]c(=O)c5C(F)(F)F)C4)c3)CC2)nc1 (stereo not drawn) [Example 469, 6-(4-(3-((1-(6-Oxo-5-(trifluoromethyl)-1,6-dihydropyridazin-4-yl)pyrrolidin-3-yl)methoxy)benzoyl)piperazin-1-yl)nicotinonitrile]",< 0.1

row,Molecule,IC50 [µM]
1,"CC(=O)N1CCC(Oc2ccc(F)c3c2CN(c2cn[nH]c(=O)c2C(F)(F)F)C3)CC1 [Example 2, 5-[4-[(1-acetylpiperidin-4-yl)oxy]-7-fluoro-2,3-dihydro-1H-isoindol-2-yl]-4-(trifluoromethyl)-2,3-dihydropyridazin-3-one]",< 0.1
2,"N#Cc1ccc(N2CCN(C(=O)CCO[C@H]3C[C@@H](CN)N(c4cn[nH]c(=O)c4C(F)(F)F)C3)CC2)nc1 [Example 487, 6-(4-(3-(((3S,5S)-5-(Aminomethyl)-1-(6-oxo-5-(trifluoromethyl)-1,6-dihydropyridazin-4-yl)pyrrolidin-3-yl)oxy)propanoyl)piperazin-1-yl)nicotinonitrile]",0.1 to 1
3,"N#Cc1ccc(N2CCN(C(=O)CCOC[C@H](CO)Oc3cn[nH]c(=O)c3C(F)(F)F)CC2)nc1 (single isomer, unassigned) [Example 573 Isomer C]",< 0.1
4,"O=c1[nH]ncc(N2Cc3ccc(OCCN4CCOCC4)nc3C2)c1C(F)(F)F [Example 316, 5-(2-(2-Morpholinoethoxy)-5,7-dihydro-6H-pyrrolo[3,4-b]pyridin-6-yl)-4-(trifluoromethyl)pyridazin-3(2H)-one]",0.1 to 1
5,"6-(4-[3-[(2R)-2-[[6-Oxo-5-(trifluoromethyl)-1,6-dihydropyridazin-4-yl]amino]-2-phenylethoxy]propanoyl]piperazin-1-yl)pyridine-3-carbonitrile [Example 515A]",≥ 1
6,"O=C(c1cccc(OC[C@@H]2c3ccccc3CN2c2cn[nH]c(=O)c2C(F)(F)F)c1)N1CCn2c(nnc2C(F)(F)F)C1 [Example 373, (S)-4-(Trifluoromethyl)-5-(1-((3-(3-(trifluoromethyl)-5,6,7,8-tetrahydro-[1,2,4]triazolo[4,3-a]pyrazine-7-carbonyl)phenoxy)methyl)isoindolin-2-yl)pyridazin-3(2H)-one]",< 0.1
7,"NC1CCN(c2cccc3c2CN(c2cn[nH]c(=O)c2C(F)(F)F)C3)C1 (stereo not drawn) [Example 306, 5-(4-(3-Aminopyrrolidin-1-yl)isoindolin-2-yl)-4-(trifluoromethyl)pyridazin-3(2H)-one]",< 0.1
8,"C[C@@H](COC[C@H](N)CC(=O)N1CCN(c2ncc(C(F)(F)F)cn2)CC1)Nc1cn[nH]c(=O)c1C(F)(F)F (single isomer, unassigned) [Example 617 Isomer A]",< 0.1
9,"N#Cc1ccc(N2CCN(C(=O)CCOC[C@@H]3CCCN3c3cn[nH]c(=O)c3C(F)(F)F)CC2)cn1 [Example 475, (S)-5-(4-(3-((1-(6-Oxo-5-(trifluoromethyl)-1,6-dihydropyridazin-4-yl)pyrrolidin-2-yl)methoxy)propanoyl)piperazin-1-yl)picolinonitrile]",< 0.1
10,"N#Cc1ccc(N2CCN(C(=O)CCNC[C@H]3c4ccccc4CN3c3cn[nH]c(=O)c3Cl)CC2)nc1 [Example 425, (R)-6-(4-(3-(((2-(5-Chloro-6-oxo-1,6-dihydropyridazin-4-yl)isoindolin-1-yl)methyl)amino)propanoyl)piperazin-1-yl)nicotinonitrile]",≥ 1
11,"O=c1[nH]ncc(N2Cc3cccc(Oc4cccnc4)c3C2)c1C(F)(F)F [Example 233, 5-(4-(Pyridin-3-yloxy)isoindolin-2-yl)-4-(trifluoromethyl)pyridazin-3(2H)-one]",< 0.1
12,C[C@@H](COCCC(=O)N1CCN(c2ncc(Cl)cn2)CC1)Nc1cn[nH]c(=O)c1Br [Example 602],< 0.1
13,"N#Cc1cnc(N2CCN(C(=O)c3cccc(OC[C@H]4CCCN4c4cn[nH]c(=O)c4C(F)(F)F)c3)CC2)nc1 [Example 438, (R)-2-(4-(3-((1-(6-Oxo-5-(trifluoromethyl)-1,6-dihydropyridazin-4-yl)pyrrolidin-2-yl)methoxy)benzoyl)piperazin-1-yl)pyrimidine-5-carbonitrile]",≥ 1
14,"N#Cc1ccc(N2CCN(C(=O)c3cccc(OC[C@H]4CCCN4c4cn[nH]c(=O)c4C(F)(F)F)c3)CC2)nc1 [Example 31, 6-[4-[(3-[[(2R)-1-[6-oxo-5-(trifluoromethyl)-1,6-dihydropyridazin-4-yl]pyrrolidin-2-yl]methoxy]phenyl)carbonyl]piperazin-1-yl]pyridine-3-carbonitrile]",≥ 1
15,"C[C@@H](COCCC(=O)N1CCN(c2ncc(C#N)s2)CC1)Oc1cn[nH]c(=O)c1C(F)(F)F [Example 711, (S)-2-(4-(3-(2-((6-Oxo-5-(trifluoromethyl)-1,6-dihydropyridazin-4-yl)oxy)propoxy)propanoyl)piperazin-1-yl)thiazole-5-carbonitrile]",< 0.1
16,"Cc1c(OCCOCCC(=O)N2CCN(c3ncc(C(F)(F)F)cn3)CC2)cn[nH]c1=O [Example 550, 4-Methyl-5-[2-(3-oxo-3-[4-[5-(trifluoromethyl)pyrimidin-2-yl]piperazin-1-yl]propoxy)ethoxy]-2,3-dihydropyridazin-3-one]",< 0.1
